This is an account of results in patent US11180474B2 (BRISTOL-MYERS SQUIBB COMPANY, priority 2016, dated 2021).

Structures are written as SMILES.

For one experiment, the target named is T1, human TLR7 (Homo sapiens, UniProt Q9NYK1).
T1 construct: host or cells: HEK-Blue cells
T1 sequence (Q9NYK1 27-1049): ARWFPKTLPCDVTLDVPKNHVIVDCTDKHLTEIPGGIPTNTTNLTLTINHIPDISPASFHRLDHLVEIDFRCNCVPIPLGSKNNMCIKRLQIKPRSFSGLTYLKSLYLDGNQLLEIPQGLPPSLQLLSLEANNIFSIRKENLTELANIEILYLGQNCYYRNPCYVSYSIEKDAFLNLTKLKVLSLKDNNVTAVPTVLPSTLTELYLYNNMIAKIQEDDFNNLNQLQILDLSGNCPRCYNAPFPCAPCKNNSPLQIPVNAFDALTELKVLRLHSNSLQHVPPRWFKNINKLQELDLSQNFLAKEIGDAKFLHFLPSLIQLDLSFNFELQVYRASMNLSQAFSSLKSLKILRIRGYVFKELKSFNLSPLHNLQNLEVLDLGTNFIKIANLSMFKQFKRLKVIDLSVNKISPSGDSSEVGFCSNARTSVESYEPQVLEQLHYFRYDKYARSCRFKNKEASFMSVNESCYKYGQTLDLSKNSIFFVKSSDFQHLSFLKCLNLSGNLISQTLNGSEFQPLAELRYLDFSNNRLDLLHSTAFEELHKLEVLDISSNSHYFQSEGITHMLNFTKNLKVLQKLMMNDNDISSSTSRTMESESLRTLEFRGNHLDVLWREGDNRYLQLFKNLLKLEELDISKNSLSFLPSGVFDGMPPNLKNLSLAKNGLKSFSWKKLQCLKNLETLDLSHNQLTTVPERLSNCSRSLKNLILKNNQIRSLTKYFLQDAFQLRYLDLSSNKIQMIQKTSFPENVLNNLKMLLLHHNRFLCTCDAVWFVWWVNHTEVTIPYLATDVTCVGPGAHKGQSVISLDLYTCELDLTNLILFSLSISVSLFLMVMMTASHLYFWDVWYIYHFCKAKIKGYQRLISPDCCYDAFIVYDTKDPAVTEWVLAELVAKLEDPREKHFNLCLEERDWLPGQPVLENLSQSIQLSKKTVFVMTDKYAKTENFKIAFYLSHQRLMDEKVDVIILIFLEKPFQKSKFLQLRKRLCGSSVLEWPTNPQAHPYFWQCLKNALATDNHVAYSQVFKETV
Briefly: TLR7 inhibition reporter assay (HEK-Blue cells, SEAP reporter, gardiquimod stimulation). It is filed as cell-based. The note with it: HEK-Blue cells overexpressing human TLR7, gardiquimod 7.5 μM. In short, it runs like this:
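HEK-Blue reporter cells (15,000/well TLR7, 20,000 TLR8) exposed to compound over 0.05 nM–50 μM, agonist-stimulated (R848 for TLR8, gardiquimod for TLR7), 22 h at 37 °C, 5% CO2. SEAP read with HEK-Blue Detection; % inhibition relative to agonist-plus-DMSO and known-inhibitor controls.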
A general note: A reporter such as luciferase makes a cellular process visible.

The target in a further experiment is T2, human TLR9 (Homo sapiens, UniProt Q9NR96).
T2 construct: host or cells: HEK-Blue cells
T2 sequence (Q9NR96 26-1032): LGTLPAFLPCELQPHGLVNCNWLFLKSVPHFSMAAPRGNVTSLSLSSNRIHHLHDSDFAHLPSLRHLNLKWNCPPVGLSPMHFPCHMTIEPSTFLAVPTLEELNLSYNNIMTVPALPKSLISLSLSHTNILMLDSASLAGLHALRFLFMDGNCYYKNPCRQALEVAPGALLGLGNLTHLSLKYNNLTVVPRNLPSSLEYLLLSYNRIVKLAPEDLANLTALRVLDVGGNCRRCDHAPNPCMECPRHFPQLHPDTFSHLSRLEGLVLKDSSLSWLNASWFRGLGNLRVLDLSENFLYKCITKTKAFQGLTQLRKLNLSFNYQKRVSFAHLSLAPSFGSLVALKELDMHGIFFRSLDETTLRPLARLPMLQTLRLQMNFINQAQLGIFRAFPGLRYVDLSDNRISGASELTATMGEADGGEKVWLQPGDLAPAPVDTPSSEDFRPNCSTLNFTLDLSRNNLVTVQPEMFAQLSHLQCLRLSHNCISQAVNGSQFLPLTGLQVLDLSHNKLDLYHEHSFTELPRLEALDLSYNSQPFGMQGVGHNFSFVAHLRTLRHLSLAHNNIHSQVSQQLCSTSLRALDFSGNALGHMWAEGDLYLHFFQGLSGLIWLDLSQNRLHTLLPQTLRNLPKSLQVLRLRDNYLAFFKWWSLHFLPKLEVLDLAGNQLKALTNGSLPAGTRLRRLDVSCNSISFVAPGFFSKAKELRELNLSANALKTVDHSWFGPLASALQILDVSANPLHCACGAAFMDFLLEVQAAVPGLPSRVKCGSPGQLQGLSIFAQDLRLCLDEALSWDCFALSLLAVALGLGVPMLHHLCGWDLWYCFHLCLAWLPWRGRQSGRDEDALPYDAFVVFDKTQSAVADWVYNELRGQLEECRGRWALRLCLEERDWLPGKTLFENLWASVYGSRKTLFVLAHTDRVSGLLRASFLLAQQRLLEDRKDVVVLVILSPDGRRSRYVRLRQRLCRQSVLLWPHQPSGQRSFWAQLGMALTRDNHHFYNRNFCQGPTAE
Briefly: TLR9 inhibition reporter assay (HEK-Blue cells, SEAP reporter, ODN2006 stimulation). It is filed as cell-based. The note with it: HEK-Blue cells overexpressing human TLR9, ODN2006 5 nM. In short, it runs like this: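 Agonists used: gardiquimod 7.5 μM (TLR7), R848 15.9 μM (TLR8), ODN2006 5 nM (TLR9), added after 30 min room-temperature compound pre-treatment (0.05 nM–50 μM) of receptor-overexpressing HEK-Blue cells. SEAP reporter (NF-κB/AP-1 driven) read after 22 h at 37 °C; inhibition scaled between agonist+DMSO and reference-inhibitor wells.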

One may read the IC50 as the concentration that inhibits the measured activity by half. Lower therefore signals greater potency. For the molecule `CCc1c(-c2ccc(OC)c(OC)c2)[nH]c2ccc(C3CCN(C(=O)CN4CCCC(C(=O)N(CC)CC)C4)CC3)cc12` (single isomer, unassigned) [Example 178, 1-(2-(4-(2-(3,4-dimethoxyphenyl)-3-ethyl-1H-indol-5-yl)piperidin-1-yl)-2-oxoethyl)-N,N-diethylpiperidine-3-carboxamide], the IC50 is 480 nM at human TLR7 and 5230 nM on human TLR9.
For `CNCCN1CCC(c2ccc3c(c2)c(C)c(-c2ccc(OC)c(OC)c2)n3C)CC1` [Example 114, 2-(4-(2-(3,4-dimethoxyphenyl)-1,3-dimethyl-1H-indol-5-yl)piperidin-1-yl)-N-methylethan-1-amine], the IC50 against human TLR7 is 5260 nM; on human TLR9 it was 737 nM.
Consider `COc1ccc(-c2[nH]c3ccc(C4CCN(C(=O)CNCC#N)CC4)cc3c2C(C)C)cc1OC` [Example 214, 2-((2-(4-(2-(3,4-dimethoxyphenyl)-3-isopropyl-1H-indol-5-yl)piperidin-1-yl)-2-oxoethyl)amino) acetonitrile], for which the IC50 was 21 nM on human TLR7 and at least 50000 nM against human TLR9.
As to `COc1ccc(-c2[nH]c3ccc(C4CCN(C(=O)CNCC(C)O)CC4)cc3c2C(C)C)cc1OC` (centres unmarked) [Example 210, 1-(4-(2-(3,4-dimethoxyphenyl)-3-isopropyl-1H-indol-5-yl)piperidin-1-yl)-2-((2-hydroxypropyl)amino)ethan-1-one], the IC50 came to 13 nM at human TLR7 and 1930 nM against human TLR9.
With `CCc1c(-c2ccc(OC)c(OC)c2)[nH]c2ccc(C3CCN(C(=O)C4CCCNC4)CC3)cc12` (centres unmarked) [Example 184, (4-(2-(3,4-dimethoxyphenyl)-3-ethyl-1H-indol-5-yl)piperidin-1-yl)(piperidin-3-yl)methanone], the IC50 at human TLR7 amounted to 191 nM; at human TLR9, 2070 nM.
On the same counts, the results for `COc1ccc(-c2[nH]c3ccc(C4CCN(C(=O)CNCCO)CC4)cc3c2C(C)C)cc1OC` [Example 212, 1-(4-(2-(3,4-dimethoxyphenyl)-3-isopropyl-1H-indol-5-yl)piperidin-1-yl)-2-((2-hydroxyethyl)amino)ethan-1-one] are 13 nM and 1190 nM.
With `CCc1c(-c2ccc(OC)c(OC)c2)[nH]c2ccc(C3CCN(C(=O)CN4CC[C@@H](O)C4)CC3)cc12` [Example 173, (R)-1-(4-(2-(3,4-dimethoxyphenyl)-3-ethyl-1H-indol-5-yl)piperidin-1-yl)-2-(3-hydroxypyrrolidin-1-yl)ethan-1-one], the IC50 against human TLR7 came to 43 nM; at human TLR9, 2240 nM.
On to `COc1ccc(-c2[nH]c3ccc(C4CCN(C(=O)CN(C)C)CC4)cc3c2C(C)C)cc1OC` [Example 209, 1-(4-(2-(3,4-dimethoxyphenyl)-3-isopropyl-1H-indol-5-yl)piperidin-1-yl)-2-(dimethylamino)ethan-1-one], for which the values for the IC50 against human TLR7 and against human TLR9 were 12 nM and 1660 nM, respectively.
On the same counts, the results for `CCc1c(-c2ccc(OC)c(OC)c2)[nH]c2ccc(C3CCN(C4CCN(Cc5csnn5)CC4)CC3)cc12` [Example 130, 4-((4-(2-(3,4-dimethoxyphenyl)-3-ethyl-1H-indol-5-yl)-[1,4′-bipiperidin]-1′-yl)methyl)-1,2,3-thiadiazole] are 4170 nM and 6230 nM.
For the molecule `CCc1c(-c2ccc(OC)c(OC)c2)[nH]c2ccc(C3CCN(C4CCN(Cc5ccccc5)CC4)CC3)cc12` [Example 147, 5-(1′-benzyl-[1,4′-bipiperidin]-4-yl)-2-(3,4-dimethoxyphenyl)-3-ethyl-1H-indole], the figures for the IC50 against human TLR7 and on human TLR9 were 292 nM and 552 nM, respectively.
On the same counts, the results for `CCc1c(-c2ccc(OC)c(OC)c2)[nH]c2cc(C)c(C3CCN(CCNC)CC3)cc12` [Example 188, 2-(4-(2-(3,4-dimethoxyphenyl)-3-ethyl-6-methyl-1H-indol-5-yl)piperidin-1-yl)-N-methylethanamine-di-trifluoroacetic acid] are 70 nM and 613 nM.
On the same counts, the results for `CCc1c(-c2ccc(OC)c(OC)c2)[nH]c2ccc(C3CCN(C4CCN(Cc5coc(C)n5)CC4)CC3)cc12` [Example 126, 4-((4-(2-(3,4-dimethoxyphenyl)-3-ethyl-1H-indol-5-yl)-[1,4′-bipiperidin]-1′-yl)methyl)-2-methyloxazole] are 920 nM and 481 nM.
`CCc1c(-c2ccc(OC)c(OC)c2)[nH]c2ccc(C3CCN(CCNC)CC3)cc12` [Example 155, 2-(4-(2-(3,4-dimethoxyphenyl)-3-ethyl-1H-indol-5-yl)piperidin-1-yl)-N-methylethanamine di-trifluoroacetic acid]: the IC50 against human TLR7 amounted to 134 nM; on human TLR9, 492 nM.
On to `COc1ccc(-c2[nH]c3ccc(C4CCN(C5CCN(CC(C)C)CC5)CC4)cc3c2Cl)cc1OC` [Example 120, 3-chloro-2-(3,4-dimethoxyphenyl)-5-(1′-isobutyl-[1,4′-bipiperidin]-4-yl)-1H-indole di-trifluoroacetic acid], for which the values for the IC50 at human TLR7 and at human TLR9 were 2740 nM and 157 nM, respectively.
Consider `COc1ccc(-c2[nH]c3cc(C)c(C4CCNCC4)cc3c2C(C)C)cc1OC` [Example 205, 2-(3,4-dimethoxyphenyl)-3-isopropyl-6-methyl-5-(piperidin-4-yl)-1H-indole], for which the IC50 on human TLR7 was found to be 2370 nM; against human TLR9 it was 966 nM.
Consider `CNCCN1CCC(c2ccc3[nH]c(-c4ccc(OC)c(OC)c4)c(CC(C)C)c3c2)CC1` [Example 116, trifluoroacetic acid], for which the IC50 worked out at 1290 nM against human TLR7 and 830 nM on human TLR9.
As for `COc1ccc(-c2[nH]c3ccc(C4CCN(C5CCN(C(C)C)CC5)CC4)cc3c2C(C)C)cc1OC` [Example 201, 2-(3,4-dimethoxyphenyl)-3-isopropyl-5-(1′-isopropyl-[1,4′-bipiperidin]-4-yl)-1H-indole], the IC50 against human TLR7 came out at 119 nM; against human TLR9 it was 650 nM.
Turning to `COc1ccc(-c2[nH]c3ccc(C4CCN(C(=O)CN5CCC(N6CCCCC6)CC5)CC4)cc3c2C(C)C)cc1OC` [Example 211, 2-([1,4′-bipiperidin]-1′-yl)-1-(4-(2-(3,4-dimethoxyphenyl)-3-isopropyl-1H-indol-5-yl)piperidin-1-yl)ethan-1-one], the IC50 on human TLR7 stood at 14 nM; against human TLR9, 990 nM.
As to `CCc1c(-c2ccc(OC)c(OC)c2)[nH]c2ccc(C3CCN(C(=O)CNCC#N)CC3)cc12` [Example 161, 2-((2-(4-(2-(3,4-dimethoxyphenyl)-3-ethyl-1H-indol-5-yl)piperidin-1-yl)-2-oxoethyl)amino)acetonitrile], the IC50 is 1210 nM at human TLR7 and at least 50000 nM against human TLR9.
